Measured values: PMC5442318, “Hundreds of dual-stage antimalarial molecules discovered by a functional gametocyte screen” (Nature Communications, 2017)

How the values were obtained:
[1] = tested on: HepG2 cells; experiment: HepG2 cytotoxicity assay; type: cell-based; conditions: mean
Procedure, shortened: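 Luminescent read-out (CellTiter-Glo) taken 10 min after reagent addition at RT; plates and reagent pre-equilibrated 30 min at RT.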

[2] = tested on: P. falciparum stage V female gametocytes; experiment: P. falciparum female gametocyte activation assay (Pf FGAA), 24 h or 48 h preincubation, Pfs25 expression readout; type: cell-based, Plasmodium falciparum NF54; conditions: mean; read-out: Gametocytes mean Pf FGAA IC50
Procedure, shortened: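 Female activation, triggered by xanthurenic acid and cooling, was scored by imaging Cy3-labelled anti-Pfs25 female gametes after 24 h at 26 °C. Beforehand, purified NF54 stage V gametocytes had been incubated with compound for either 24 h or 48 h (37 °C, 3% O2). Values are pIC50 from full-curve regression.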

[3] = tested on: P. falciparum asexual blood stages; conditions: TCAMS data; ref 1 (Gamo et al., 2010); read-out: Pf Asexual blood stages XC50; cited from earlier work
[4] = tested on: P. falciparum stages IV–V gametocytes; experiment: Gametocytocidal ATP-depletion assay (gametocyte ATP bioluminescence); type: cell-based, Plasmodium falciparum
Procedure, shortened: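 Read-out is luciferase luminescence of parasite ATP (BacTiter-Glo), standing in for viability. Double-purified mature stage IV–V gametocytes, 12,500 per well, were exposed 48 h at 37 °C in low-O2 gas; screening concentration 2 μM.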

| Compound | HepG2 cells mean TOX50 [1] [µM] | IC50 [2] [nM] | IC50 [3] [nM] | Gametocytes mean ATP inhibition at 2µM (%) [4] [%] |
| --- | --- | --- | --- | --- |
| Cc1cc(N)c2cc(NC(=O)c3cc(C(F)(F)F)cc(C(F)(F)F)c3)ccc2n1.Cl [TCMDC-139377] | 2.60 | 860 | 90 | 0.86 |
| COc1ccc2nc(N=C3NC4(c5ccccc5)NC(=Nc5nc6ccc(OC)cc6[nH]5)NC4(c4ccccc4)N3)[nH]c2c1.O=C(O)C(F)(F)F (stereo not drawn) [TCMDC-139632] | 62.72 | 120 | 200 | 67.82 |
| CC(Cc1ccc(CNC(=O)c2ccc(CC(C)NCCc3cccc(Cl)c3)cc2)cc1)NCCc1cccc(Cl)c1 (stereo not drawn) [TCMDC-139659] | 2.26 | 860 | 700 | -0.70 |
| CC(=O)N(Cc1ccc(CC(C)NCCc2cccc(Cl)c2)cc1)Cc1ccc(CC(C)NCCc2cccc(Cl)c2)cc1 (stereo not drawn) [TCMDC-139678] | 2.85 | 810 | 780 | 14.97 |
| c1cc(Nc2nc(-c3ccc(-c4csc(Nc5ccncc5)n4)cc3)cs2)ccn1 [TCMDC-139725] | 2.26 | 30 | 120 | 93.92 |
| CC(Cc1ccc(C(=O)Nc2ccc(CC(C)NCCc3cccc(Cl)c3)cc2)cc1)NCCc1ccc(C(F)(F)F)cc1 (stereo not drawn) [TCMDC-139790] | 4.13 | 1010 | 570 | 57.11 |
| CC(Cc1ccc(NS(=O)(=O)c2ccc(CC(C)NCCc3cccc(Cl)c3)cc2)cc1)NCCc1cccc(Cl)c1 (stereo not drawn) [TCMDC-139797] | 4.37 | 1840 | 770 | -2.49 |
| CC(CCCCCC(=O)Nc1ccc(CC(C)NCCc2cccc(Cl)c2)cc1)NCCc1cccc(Cl)c1 (stereo not drawn) [TCMDC-139800] | 2.55 | 1390 | 950 | 20.09 |
| CCOc1ccccc1CCNC(C)Cc1ccc(C(=O)Nc2ccc(CC(C)NCCc3cccc(Cl)c3)cc2)cc1 (stereo not drawn) [TCMDC-139805] | 3.24 | 1390 | 540 | 17.68 |
| CCCCCCCN1CC[C@@H](CCCc2ccnc3ccc(OCCN4CCNCC4)cc23)[C@@H](CC)C1.Cl [TCMDC-139817] | 4.90 | 1860 | 770 | 8.71 |
| CC(Cc1ccc(NC(=O)c2ccc(CNCCCCc3ccccc3)cc2)cc1)NCCc1cccc(Cl)c1.Cl (stereo not drawn) [TCMDC-139866] | 1.97 | 1120 | 330 | 18.31 |
| CC(Cc1ccc(NC(=O)c2ccc(CNCCc3ccccc3)cc2)cc1)NCCc1cccc(Cl)c1.Cl (stereo not drawn) [TCMDC-139867] | 4.17 | 2070 | 350 | 10.73 |
| Cc1oc(-c2ccc(Cl)cc2)cc1C(=O)NCCC1CCN(CCCCCNC(=O)/C=C/c2ccc(Cl)c(Cl)c2)CC1 [TCMDC-140009] | 3.31 | 1830 | 450 | -9.24 |
| CC(Cc1ccc(OCCCCOc2ccccc2)cc1)NCCC1CCCN1C (stereo not drawn) [TCMDC-140017] | 1.12 | 200 | 40 | 85.16 |
| Nc1ccc2[nH]cc(C3CCN(CC4CCN(C(=O)/C=C/c5ccc(Cl)c(Cl)c5)CC4)CC3)c2n1 [TCMDC-140061] | 5.89 | 1770 | 700 | -11.61 |
| Nc1ccc2[nH]cc(C3CCN(CCC4CCN(C(=O)/C=C/c5ccc(Cl)c(Cl)c5)CC4)CC3)c2n1 [TCMDC-140062] | 8.13 | 1290 | 740 | -11.87 |
| O=C(/C=C/c1ccc(Cl)c(Cl)c1)N1CCC(CN2CCC(c3c[nH]c4ccncc34)CC2)CC1 [TCMDC-140074] | 5.32 | 870 | 730 | -2.94 |
| CN(CCCCN)Cc1ccc(-c2ccc(Cl)cc2)cc1 [TCMDC-140123] | 3.55 | 1580 | 880 | 17.75 |
| Nc1cc2c(C3CCN(CC4CCN(C(=O)/C=C/c5ccc(Cl)c(Cl)c5)CC4)CC3)c[nH]c2cn1 [TCMDC-140133] | 6.24 | 1970 | 980 | -6.84 |
| COc1ccc(-c2ccccc2)cc1NC(=S)NC1CCC(CN2CCC(c3c[nH]c4ccccc34)CC2)CC1 (stereo not drawn) [TCMDC-140182] | 5.50 | 1650 | 650 | 21.09 |
| CC(C)(CN)c1nc(-c2ccc(Cl)c(O)c2)c(-c2ccncc2)[nH]1.Cl [TCMDC-140369] | 2.16 | 940 | 760 | -0.49 |
| CN1CCN(CCCN(Cc2cccc(-c3ccc(CNC4CCCC4)cc3)c2)C(=O)/C=C/c2ccccc2)CC1.O=C(O)C(F)(F)F [TCMDC-140544] | 7.70 | 1360 | 750 | 0.64 |
| CN1CCN(CCCN(Cc2cccc(-c3ccc(CNCCc4ccccc4)cc3)c2)C(=O)c2cccs2)CC1.O=C(O)C(F)(F)F [TCMDC-140568] | 5.98 | 1710 | 720 | -8.58 |
| CN1CCN(CCCNCc2cccc(-c3ccc(CNCCc4ccccc4)cc3)c2)CC1 [TCMDC-140643] | 7.92 | 1910 | 780 | 22.49 |
| COc1cc(NCCCNCc2cn(Cc3cc(Br)cc(Br)c3)c3ccccc23)nc2ccccc12 [TCMDC-140677] | 3.94 | 860 | 190 | 11.13 |
| CN(C)CCCOc1ccc(CN2CCC(c3c[nH]c4ccc(NCC5CCCCC5)cc34)CC2)cc1.O=C(O)C(F)(F)F [TCMDC-140737] | 5.48 | 560 | 680 | -13.51 |
| CCN(CC)CCN(Cc1ccc(-c2ccc(C(F)(F)F)cc2)cc1)C(=O)Cn1cc(Cc2cnn(C)c2)c(=O)nc1/C=C/c1ccc(F)cc1.O=C(O)C(O)C(O)C(=O)O [TCMDC-140741] | 13.81 | 1210 | 1060 | 46.80 |
| CC(C)(C)c1ccc(CNC(=O)/C=C/c2ccc(CNC3CCNCC3)cc2)cc1 [TCMDC-140773] | 9.47 | 1920 | 1090 | 8.96 |
| CC(C)(C)c1ccc(CNC(=O)c2cc(CNC3CCNCC3)ccc2O)cc1 [TCMDC-140775] | 13.96 | 2000 | 710 | -11.19 |
| CC(C)(C)c1ccc(CNC(=O)c2ccc(CNC3CCC(N)CC3)s2)cc1 (stereo not drawn) [TCMDC-140777] | 8.95 | 2440 | 530 | 10.64 |
